Test results as given in US8088801B2, “Aryloazol-2-yl cyanoethylamino compounds, method of making and method of using thereof” (Merial Limited, priority 2007, dated 2012).

These molecules were tested on Haemonchus contortus (assay: Method A: screening against Haemonchus contortus, L1 larvae in microtitre plate). Conditions: 96 h, test concentration 0.0025 ppm, 4 days assessment, read-out: motility inhibition.
From the text: Method A: Screening Method to Test Activity of Compounds Against Haemonchus contortus.

Q: With `CC(C#N)(Cn1nc2c(Br)cc(Cl)c(Br)c2n1)NC(=O)c1ccc(OC(F)(F)F)cc1` (stereo not shown) [Compound 1.083, N-[2-(5-Chloro-4,7-dibromo-2H-benzotriazol-2-yl)-1-cyano-1-methylethyl]-4-trifluoromethoxybenzamide] as the molecule, how does the inhibition at 0.0025 ppm read?
A: Its inhibition at 0.0025 ppm is no less than 90%.

Q: `CC(C#N)(Cn1nc2c(Cl)c(Br)c(Cl)c(Br)c2n1)NC(=O)c1ccc(OC(F)(F)F)cc1` (stereo not shown) [Compound 1.088, N-[1-Cyano-2-(4,6-dibromo-5,7-dichloro-2H-benzotriazol-2-yl)-1-methylethyl]-4-trifluoromethoxybenzamide] was tested. Which inhibition at 0.0025 ppm did it give?
A: The inhibition at 0.0025 ppm was no less than 90%.

Q: Which inhibition at 0.0025 ppm does the source give for `CC(C#N)(Cn1nc2cc(Cl)ccc2c1Br)NC(=O)c1ccc(OC(F)(F)F)cc1` (stereo not shown) [Compound 2.042, N-[2-(3-Bromo-6-chloro-2H-indazol-2-yl)-1-cyano-1-methylethyl]-4-trifluoromethoxybenzamide] here?
A: The inhibition at 0.0025 ppm was no less than 90%.

Q: How did the inhibition at 0.0025 ppm turn out when `CC(C#N)(Cn1nc2cc(Cl)ccc2c1Cl)NC(=O)c1ccc(OC(F)(F)F)cc1` (stereo not shown) [Compound 2.044, N-[1-Cyano-2-(3,6-dichloro-2H-indazol-2-yl)-1-methylethyl]-4-trifluoromethoxybenzamide] was run?
A: Its inhibition at 0.0025 ppm is no less than 90%.

Q: For `CC(C#N)(Cn1cc2ccc(Cl)c(Cl)c2n1)NC(=O)c1ccc(OC(F)(F)F)cc1` (stereo not shown) [Compound 2.045, N-[1-Cyano-2-(6,7-dichloro-2H-indazol-2-yl)-1-methylethyl]-4-trifluoromethoxybenzamide], which inhibition at 0.0025 ppm is on record?
A: Its inhibition at 0.0025 ppm is no less than 90%.

Q: Which inhibition at 0.0025 ppm does the source give for `Cc1c2ccc(Cl)cc2nn1CC(C)(C#N)NC(=O)c1ccc(OC(F)(F)F)cc1` (stereo not shown) [Compound 2.050, N-[2-(6-Chloro-3-methyl-2H-indazol-2-yl)-1-cyano-1-methylethyl]-4-trifluoromethoxybenzamide] here?
A: Its inhibition at 0.0025 ppm is no less than 90%.

Q: With `COc1c2ccc(Br)cc2nn1CC(C)(C#N)NC(=O)c1ccc(OC(F)(F)F)cc1` (stereo not shown) [Compound 2.023, N-[2-(6-Bromo-3-methoxy-2H-indazol-2-yl)-1-cyano-1-methylethyl]-4-trifluoromethoxybenzamide] as the molecule, how does the inhibition at 0.0025 ppm read?
A: Its inhibition at 0.0025 ppm is no less than 90%.

Same assay, conditions: 96 h, test concentration 0.01 ppm, 4 days assessment, read-out: motility inhibition

Q: How did the inhibition at 0.01 ppm turn out when `CCOc1c2cc(Cl)ccc2nn1CC(C)(C#N)NC(=O)c1ccc(OC(F)(F)F)cc1` (stereo not shown) [Compound 2.014, N-[2-(5-Chloro-3-ethoxy-2H-indazol-2-yl)-1-cyano-1-methylethyl]-4-trifluoromethoxybenzamide] was run?
A: The inhibition at 0.01 ppm was no less than 90%.

Q: For `COc1c2ncc(Cl)c(C)c2nn1CC(C)(C#N)NC(=O)c1ccc(OC(F)(F)F)cc1` (stereo not shown) [Compound 3.008, N-[2-(6-Chloro-3-methoxy-7-methyl-2H-pyrazolo[4,3-b]pyridin-2-yl)-1-cyano-1-methylethyl]-4-trifluoromethoxybenzamide], which inhibition at 0.01 ppm is on record?
A: Its inhibition at 0.01 ppm is no less than 90%.

Q: How did the inhibition at 0.01 ppm turn out when `CCOc1c2ccc(Cl)cc2nn1CC(C)(C#N)NC(=O)c1ccc(OC(F)(F)F)cc1` (stereo not shown) [Compound 2.027, N-[2-(6-Chloro-3-ethoxy-2H-indazol-2-yl)-1-cyano-1-methylethyl]-4-trifluoromethoxybenzamide] was run?
A: Its inhibition at 0.01 ppm is no less than 90%.

Q: `CC(C#N)(Cn1nc2c(Cl)c(Cl)ccc2c1Cl)NC(=O)c1ccc(OC(F)(F)F)cc1` (stereo not shown) [Compound 2.039, N-[1-Cyano-1-methyl-2-(3,6,7-trichloro-2H-indazol-2-yl)ethyl]-4-trifluoromethoxybenzamide] was tested. Which inhibition at 0.01 ppm did it give?
A: The inhibition at 0.01 ppm was no less than 90%.

Q: For `Cc1cc(Cl)c(C)c2nn(CC(C)(C#N)NC(=O)c3ccc(OC(F)(F)F)cc3)nc12` (stereo not shown) [Compound 1.092, N-[2-(5-Chloro-4,7-dimethyl-2H-benzotriazol-2-yl)-1-cyano-1-methylethyl]-4-trifluoromethoxybenzamide], which inhibition at 0.01 ppm is on record?
A: The inhibition at 0.01 ppm was no less than 90%.

Same assay, conditions: 96 h, test concentration 0.04 ppm, 4 days assessment, read-out: motility inhibition

Q: `C=Cc1cc(Cl)cc2nn(CC(C)(C#N)NC(=O)c3ccc(OC(F)(F)F)cc3)nc12` (stereo not shown) [Compound 1.075, N-[2-(6-Chloro-4-vinyl-2H-benzotriazol-2-yl)-1-cyano-1-methylethyl]-4-trifluoromethoxybenzamide] was tested. Which inhibition at 0.04 ppm did it give?
A: The inhibition at 0.04 ppm was no less than 90%.

Q: How did the inhibition at 0.04 ppm turn out when `CC(C#N)(Cn1nc2ccc(Cl)c(Br)c2n1)NC(=O)c1ccc(OC(F)(F)F)cc1` (stereo not shown) [Compound 1.057, N-[2-(4-Bromo-5-chloro-2H-benzotriazol-2-yl)-1-cyano-1-methylethyl]-4-trifluoromethoxybenzamide] was run?
A: The inhibition at 0.04 ppm was no less than 90%.

Q: `CC(C#N)(Cn1nc2ccc(Cl)cc2n1)NC(=O)c1ccc(Oc2ccccc2)cc1` (stereo not shown) [Compound 1.032, N-[2-(5-Chloro-2H-benzotriazol-2-yl)-1-cyano-1-methylethyl]-4-phenoxybenzamide] was tested. Which inhibition at 0.04 ppm did it give?
A: Its inhibition at 0.04 ppm is no less than 90%.

Q: For `Cc1cc(Cl)cc2cn(CC(C)(C#N)NC(=O)c3ccc(OC(F)(F)F)cc3)nc12` (stereo not shown) [Compound 2.006, N-[2-(5-Chloro-7-methyl-2H-indazol-2-yl)-1-cyano-1-methylethyl]-4-trifluoromethoxybenzamide], which inhibition at 0.04 ppm is on record?
A: Its inhibition at 0.04 ppm is no less than 90%.

Q: With `Cc1c(Cl)cnc2cn(CC(C)(C#N)NC(=O)c3ccc(OC(F)(F)F)cc3)nc12` (stereo not shown) [Compound 3.010, N-[2-(6-Chloro-7-methyl-2H-pyrazolo[4,3-b]pyridin-2-yl)-1-cyano-1-methylethyl]-4-trifluoromethoxybenzamide] as the molecule, how does the inhibition at 0.04 ppm read?
A: The inhibition at 0.04 ppm was no less than 90%.

Q: `CC(C#N)(Cn1nc2cc(Cl)cc(C(F)CF)c2n1)NC(=O)c1ccc(OC(F)(F)F)cc1` (stereo not shown) [Compound 1.078, N-{2-[6-Chloro-4-(1,2-difluoroethyl)-2H-benzotriazol-2-yl]-1-cyano-1-methyl-ethyl}-4-trifluoromethoxybenzamide] was tested. Which inhibition at 0.04 ppm did it give?
A: The inhibition at 0.04 ppm was no less than 90%.

Q: `COc1c2c(Cl)cc(Cl)cc2nn1CC(C)(C#N)NC(=O)c1ccc(OC(F)(F)F)cc1` (stereo not shown) [Compound 2.021, N-[1-Cyano-2-(4,6-dichloro-3-methoxy-2H-indazol-2-yl)-1-methylethyl]-4-trifluoromethoxybenzamide] was tested. Which inhibition at 0.04 ppm did it give?
A: Its inhibition at 0.04 ppm is no less than 90%.

Same assay, conditions: 96 h, test concentration 0.15 ppm, 4 days assessment, read-out: motility inhibition

Q: `Cc1c2cc(Cl)cc(Cl)c2nn1CC(C)(C#N)NC(=O)c1ccc(OC(F)(F)F)cc1` (stereo not shown) [Compound 2.010, N-[1-Cyano-2-(5,7-dichloro-3-methyl-2H-indazol-2-yl)-1-methylethyl]-4-trifluoromethoxybenzamide] was tested. Which inhibition at 0.15 ppm did it give?
A: Its inhibition at 0.15 ppm is no less than 90%.

Q: How did the inhibition at 0.15 ppm turn out when `Cc1ccc2nn(CC(C)(C#N)NC(=O)c3ccc(OC(F)(F)F)cc3)nc2c1` (stereo not shown) [Compound 1.006, N-[1-Cyano-1-methyl-2-(5-methyl-2H-benzotriazol-2-yl)ethyl]-4-trifluoromethoxybenzamide] was run?
A: The inhibition at 0.15 ppm was no less than 90%.

Q: `CC(C#N)(Cn1nc2cc(Cl)c(Cl)cc2n1)NC(=O)c1ccc(OC(F)(F)F)cc1` (stereo not shown) [Compound 1.010, N-[1-Cyano-2-(5,6-dichloro-2H-benzotriazol-2-yl)-1-methylethyl]-4-trifluoromethoxybenzamide] was tested. Which inhibition at 0.15 ppm did it give?
A: Its inhibition at 0.15 ppm is no less than 90%.

Q: With `COc1c2ccc([N+](=O)[O-])cc2nn1CC(C)(C#N)NC(=O)c1ccc(OC(F)(F)F)cc1` (stereo not shown) [Compound 2.033, N-[1-Cyano-2-(3-methoxy-6-nitro-2H-indazol-2-yl)-1-methylethyl]-4-trifluoromethoxybenzamide] as the molecule, how does the inhibition at 0.15 ppm read?
A: Its inhibition at 0.15 ppm is no less than 90%.

Q: With `CC(C#N)(Cn1nc2cc(Cl)cc(CO)c2n1)NC(=O)c1ccc(OC(F)(F)F)cc1` (stereo not shown) [Compound 1.081, N-[2-(6-Chloro-4-hydroxymethyl-2H-benzotriazol-2-yl)-1-cyano-1-methylethyl]-4-trifluoromethoxybenzamide] as the molecule, how does the inhibition at 0.15 ppm read?
A: The inhibition at 0.15 ppm was no less than 90%.

Q: Which inhibition at 0.15 ppm does the source give for `COC(=O)c1cc(Cl)cc2nn(CC(C)(C#N)NC(=O)c3ccc(OC(F)(F)F)cc3)nc12` (stereo not shown) [Compound 1.084, Methyl 6-chloro-2-[2-cyano-2-({[4-(trifluoromethoxy)phenyl]carbonyl}-amino)propyl]-2H-benzotriazole-4-carboxylate] here?
A: The inhibition at 0.15 ppm was no less than 90%.

Q: For `Cc1c(Br)cnc2nn(CC(C)(C#N)NC(=O)c3ccc(OC(F)(F)F)cc3)nc12` (stereo not shown) [Compound 3.003, N-[2-(6-Bromo-7-methyl-2H-[1,2,3]triazolo[4,5-b]pyridin-2-yl)-1-cyano-1-methylethyl]-4-trifluoromethoxybenzamide], which inhibition at 0.15 ppm is on record?
A: The inhibition at 0.15 ppm was no less than 90%.

Q: `CC(C#N)(Cn1nc2ccc(Cl)cc2n1)NC(=O)c1ccc(S(=O)(=O)C(F)(F)F)cc1` (stereo not shown) [Compound 1.031, N-[2-(5-Chloro-2H-benzotriazol-2-yl)-1-cyano-1-methylethyl]-4-trifluoromethylsulfonylbenzamide] was tested. Which inhibition at 0.15 ppm did it give?
A: The inhibition at 0.15 ppm was no less than 90%.

Q: With `CC(C#N)(Cn1nc2cc(C(F)(F)F)cc(C#N)c2n1)NC(=O)c1ccc(OC(F)(F)F)cc1` (stereo not shown) [Compound 1.054, N-[1-Cyano-2-(4-cyano-6-trifluoromethyl-2H-benzotriazol-2-yl)-1-methylethyl]-4-trifluoromethoxybenzamide] as the molecule, how does the inhibition at 0.15 ppm read?
A: Its inhibition at 0.15 ppm is no less than 90%.

Q: How did the inhibition at 0.15 ppm turn out when `CC(C#N)(Cn1nc2cc(Cl)cc(Cl)c2n1)NC(=O)c1ccc(S(=O)(=O)C(F)(F)F)cc1` (stereo not shown) [Compound 1.025, N-[1-Cyano-2-(4,6-dichloro-2H-benzotriazol-2-yl)-1-methylethyl]-4-trifluoromethylsulfonylbenzamide] was run?
A: The inhibition at 0.15 ppm was no less than 90%.

Q: How did the inhibition at 0.15 ppm turn out when `CC(C#N)(Cn1nc2cc(Cl)cc(C=O)c2n1)NC(=O)c1ccc(OC(F)(F)F)cc1` (stereo not shown) [Compound 1.079, N-[2-(6-Chloro-4-formyl-2H-benzotriazol-2-yl)-1-cyano-1-methylethyl]-4-trifluoromethoxybenzamide] was run?
A: Its inhibition at 0.15 ppm is no less than 90%.

Q: `CC(C#N)(Cn1nc2ccc(Cl)cc2n1)NC(=O)c1ccc(C(F)(F)F)cc1` (stereo not shown) [Compound 1.002, N-[2-(5-Chloro-2H-benzotriazol-2-yl)-1-cyano-1-methylethyl]-4-trifluoromethylbenzamide] was tested. Which inhibition at 0.15 ppm did it give?
A: Its inhibition at 0.15 ppm is no less than 90%.

Q: Which inhibition at 0.15 ppm does the source give for `CC(C#N)(Cn1cc2cc(Cl)cc(Cl)c2n1)NC(=O)c1ccc(Oc2ccccc2)cc1` (stereo not shown) [Compound 2.004, N-[1-Cyano-2-(5,7-dichloro-2H-indazol-2-yl)-1-methylethyl]-4-phenoxybenzamide] here?
A: Its inhibition at 0.15 ppm is no less than 90%.

Q: How did the inhibition at 0.15 ppm turn out when `CSCC(C#N)(Cn1nc2ccc(Cl)cc2n1)NC(=O)c1ccc(OC(F)(F)F)cc1` (stereo not shown) [Compound 1.061, N-[2-(5-Chloro-2H-benzotriazol-2-yl)-1-cyano-1-(methylthiomethyl)ethyl]-4-trifluoromethoxybenzamide] was run?
A: The inhibition at 0.15 ppm was no less than 90%.

Q: How did the inhibition at 0.15 ppm turn out when `CC(C#N)(Cn1nc2cccc(Cl)c2n1)NC(=O)c1ccc(Oc2ccccc2)cc1` (stereo not shown) [Compound 1.045, N-[2-(4-Chloro-2H-benzotriazol-2-yl)-1-cyano-1-methylethyl]-4-phenoxybenzamide] was run?
A: The inhibition at 0.15 ppm was no less than 90%.
